The record followed here is PubChem BioAssay AID434997 (The Scripps Research Institute Molecular Screening Center, 2010).

Usually IC50 stands for the concentration at which inhibition is half-maximal.

This test concerns the target NADPH oxidase 1 (Homo sapiens) (UniProt Q9Y5S8). The test is described as follows: potency of NOX1 inhibition in cells – cell-based, luminescence, cherry picks 2, dose response (AID 434997). The conditions noted are these: NOX1-expressing cells, ROS luminescence.

Chain of NADPH oxidase 1 (Homo sapiens) (Q9Y5S8 whole entry, looked up): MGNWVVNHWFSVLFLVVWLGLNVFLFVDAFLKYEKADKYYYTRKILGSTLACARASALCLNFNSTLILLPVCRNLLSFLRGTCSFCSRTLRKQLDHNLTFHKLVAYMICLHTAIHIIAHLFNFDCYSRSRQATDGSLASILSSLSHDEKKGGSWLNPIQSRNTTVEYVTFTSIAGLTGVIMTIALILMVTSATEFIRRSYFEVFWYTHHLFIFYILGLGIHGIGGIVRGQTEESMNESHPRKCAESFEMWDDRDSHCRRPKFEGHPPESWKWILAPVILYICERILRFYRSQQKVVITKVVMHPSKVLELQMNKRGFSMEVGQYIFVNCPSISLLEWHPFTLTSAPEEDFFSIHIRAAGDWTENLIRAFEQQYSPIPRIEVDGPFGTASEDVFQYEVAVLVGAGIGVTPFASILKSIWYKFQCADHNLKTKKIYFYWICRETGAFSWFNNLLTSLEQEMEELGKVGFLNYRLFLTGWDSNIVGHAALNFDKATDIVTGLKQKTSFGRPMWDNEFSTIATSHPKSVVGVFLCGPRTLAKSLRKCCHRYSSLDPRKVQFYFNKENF

With `FC(F)(F)c1ccc2c(c1)Nc1ccccc1S2`, the IC50 was 320 nM.
